From patent US20110028447A1, “INDAZOLE DERIVATIVES” (Pfizer Inc., priority 2008, published 2011)
Like-named read-outs stand apart in the source and are kept apart here.

How the values were obtained:
human CB1 receptor [1] = target: T1, human CB1 receptor (Homo sapiens, UniProt P21554); assay: [35S] GTPγS binding on membranes of CHO cells expressing the human CB1 receptor (agonism); type: biochemical; set-up: expressed in transfected cells; membrane preparation
How it was run: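 Membranes from human CB1-expressing CHO cells (5 μg/well) incubated with test compound and [35S]GTPγS in 50 mM Tris pH 7.4, 100 mM NaCl, 3 mM MgCl2, 0.2 mM EGTA, 0.04% BSA for 45 min at 37 °C. Bound label collected by filtration, scintillation counted; EC50 from curve fits.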

human CB1 receptor [2] = target: T1, human CB1 receptor; assay: Human CB1 receptor binding, [3H] CP-55,940 displacement on HEK cell membranes; set-up: expressed in transfected cells; host or cells: HEK cells, doxycycline-induced; membrane preparation
How it was run: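 Membranes from doxycycline-induced HEK cells expressing human CB1 incubated 60 min at room temperature with [3H] CP-55,940 (final […]) in 50 mM Tris pH 7.4, 100 mM NaCl, 3 mM MgCl2, 0.2 mM EGTA, 0.04% BSA. Nonspecific binding defined with 50 μM WIN-55,212-2; filtration and scintillation counting gave EC50 and Ki.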

[3] = GTPγS EC50, human CB1, CHO cell membranes
[4] = human CB1, CHO cell membranes, read-out: GTPγS EC50

T1 sequence (P21554 whole entry): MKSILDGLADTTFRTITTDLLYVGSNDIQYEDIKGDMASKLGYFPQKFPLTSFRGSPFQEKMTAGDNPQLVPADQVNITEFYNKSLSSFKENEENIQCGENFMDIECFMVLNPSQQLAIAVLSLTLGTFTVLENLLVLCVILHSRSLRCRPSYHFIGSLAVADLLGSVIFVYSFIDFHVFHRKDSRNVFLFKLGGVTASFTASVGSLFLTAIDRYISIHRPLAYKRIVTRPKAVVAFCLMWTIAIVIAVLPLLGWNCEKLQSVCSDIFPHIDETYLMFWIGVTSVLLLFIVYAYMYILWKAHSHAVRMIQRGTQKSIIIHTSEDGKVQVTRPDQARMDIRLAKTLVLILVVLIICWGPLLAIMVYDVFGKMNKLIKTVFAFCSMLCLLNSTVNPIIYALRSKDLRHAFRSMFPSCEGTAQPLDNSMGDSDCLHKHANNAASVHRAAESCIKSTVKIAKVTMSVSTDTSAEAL

Structure (SMILES) | EC50 (human CB1 receptor [1]; [3]) | Ki (human CB1 receptor [2]; CB1 Ki) | EC50 (human CB1 receptor [1]; [4]) | Ki (human CB1 receptor [2]; read-out: CB1 Ki)
Cc1cc(CNC(=O)[C@@H](NC(=O)c2nn(Cc3ccc(F)cc3)c3ccccc23)C(C)(C)C)no1 [Example 425] | 3.36 nM | 0.92 nM | – | –
CC(C)NS(=O)(=O)CCNC(=O)[C@@H](NC(=O)c1nn(Cc2ccc(F)cc2)c2ccccc12)C(C)(C)C [Example 395] | – | – | 30.8 nM | 41.2 nM
CC(C)(C)[C@H](NC(=O)c1nn(Cc2ccc(F)cc2)c2ccccc12)C(=O)N1CCC(CO)CC1 [Example 223] | 4.76 nM | 1.12 nM | – | –
CC(C)(C)C(NC(=O)c1nn(Cc2ccc(C#N)cc2F)c2ccccc12)C(=O)NCCO (stereo not drawn) [Example 91] | 53.8 nM | 1.87 nM | – | –
CC(C)(C)[C@H](NC(=O)c1nn(Cc2ccc(F)cc2)c2ccccc12)C(=O)Nc1cnoc1 [Example 513] | 13.7 nM | 2.3 nM | – | –
CC(C)(C)[C@H](NC(=O)c1nn(Cc2ccc(F)cc2)c2ccccc12)C(=O)NCCN1Cc2ncccc2C1=O [Example 500] | – | – | 47.4 nM | 10.1 nM
Cc1noc(CNC(=O)C(NC(=O)c2nn(Cc3ccc(F)cc3)c3ccccc23)C(C)(C)C)n1 (stereo not drawn) [Example 139] | 6.36 nM | 0.82 nM | – | –
CC(C)(C)[C@H](NC(=O)c1nn(Cc2ccc(F)cc2)c2ccccc12)C(=O)NCC(=O)NC1CC1 [Example 494] | 1.17 nM | 0.34 nM | – | –
CC(C)(C)[C@H](NC(=O)c1nn(Cc2ccc(C(F)(F)F)cc2)c2ccccc12)C(=O)NCCO [Example 255] | 130 nM | 13.1 nM | – | –
CC(C)(C)[C@H](NC(=O)c1nn(Cc2ccc(F)c(F)c2)c2ccccc12)C(=O)NCCC(N)=O [Example 473] | 41.8 nM | 17 nM | – | –
CC(C)(C)C(NC(=O)c1nn(Cc2ccc(F)cc2)c2ccccc12)C(=O)NCC(O)CO (stereo not drawn) [Example 79] | 27.1 nM | 2.02 nM | – | –
CC(C)(C)[C@H](NC(=O)c1nn(Cc2ccccc2)c2ccc(-c3cccnc3)cc12)C(N)=O [Example 8, N-[(1S)-1-(Aminocarbonyl)-2,2-dimethylpropyl]-1-benzyl-5-pyridin-3-yl-1H-indazole-3-carboxamide] | – | – | 209 nM | 118 nM
CC(C)(C)[C@H](NC(=O)c1nn(Cc2ccc(F)cc2)c2ccccc12)C(=O)N1CCC[C@@H]1CO [Example 307] | 1.56 nM | 1.27 nM | – | –
CC(C)(C)[C@H](NC(=O)c1nn(Cc2ccc(F)cc2)c2ccccc12)C(=O)N1CCN(C(=O)CCC(N)=O)CC1 [Example 228] | – | – | 15.1 nM | 4.26 nM
CC(C)(C)[C@H](NC(=O)c1nn(Cc2ccc(F)cc2)c2ccccc12)C(=O)NCC(=O)NCCO [Example 376] | 4.4 nM | 1.52 nM | – | –
CC(C)(C)[C@H](NC(=O)c1nn(Cc2ccc(F)cc2)c2ccccc12)C(=O)NC[C@H]1CCCC[C@@H]1O [Example 253] | – | – | 26 nM | 4.5 nM
CC(C)(C)[C@H](NC(=O)c1nn(Cc2ccc(C#N)cc2)c2cc(F)ccc12)C(=O)NCC(F)(F)F [Example 310] | 2.1 nM | 1.48 nM | – | –
CC(C)(C)[C@H](NC(=O)c1nn(Cc2ccc(C#N)cc2)c2ccccc12)C(=O)NCCNS(=O)(=O)c1ccc(C#N)cc1 [Example 264] | – | – | 103 nM | 6.75 nM
CC(C)(C)[C@H](NC(=O)c1nn(Cc2ccc(F)cc2)c2ccccc12)C(=O)NCCOc1ccnc(N)n1 [Example 479] | – | – | 131 nM | 13.4 nM
CC(C)(C)[C@H](NC(=O)c1nn(Cc2ccc(F)cc2)c2ccccc12)C(=O)NCc1nc(-c2cnccn2)no1 [Example 418] | – | – | 4.07 nM | 0.78 nM
CC(C)(C)[C@H](NC(=O)c1nn(Cc2ccc(F)cc2)c2ccccc12)C(=O)N1CCCC(F)(F)C1 [Example 333] | 3.75 nM | 1.49 nM | – | –
CC(C)(C)[C@H](NC(=O)c1nn(Cc2ccc(C#N)cc2)c2c(F)cccc12)C(=O)N[C@@H]1CNC(=O)C1 [Example 457] | 108 nM | 1.77 nM | – | –
CC(C)(C)[C@H](NC(=O)c1nn(Cc2ccc(F)cc2)c2ccccc12)C(=O)NCc1nn[nH]n1 [Example 218] | 360 nM | 7.92 nM | – | –

Structure (SMILES) | EC50 (human CB1 receptor [1]; [3]) | Ki (human CB1 receptor [2]; CB1 Ki) | EC50 (human CB1 receptor [1]; [4]) | Ki (human CB1 receptor [2]; read-out: CB1 Ki)
CC(C)C(NC(=O)c1nn(Cc2ccccc2F)c2ccccc12)C(N)=O (stereo not drawn) [Example 17] | 149 nM | 4.69 nM | – | –
CC(C)(C)[C@H](NC(=O)c1nn(Cc2ccc(F)cc2)c2ccccc12)C(=O)NC[C@H]1CCCC[C@H]1O [Example 250] | – | – | 18.1 nM | 3.72 nM
CC(C)(C)C(NC(=O)c1nn(Cc2ccc(C#N)cc2)c2ccccc12)C(N)=O (stereo not drawn) [Example 28] | 121 nM | 2.05 nM | – | –
CC(C)(C)[C@H](NC(=O)c1nn(Cc2ccc(C#N)cc2)c2ccccc12)C(=O)NCCCO [Example 67] | 827 nM | 46.5 nM | – | –
CC(C)(C)[C@H](NC(=O)c1nn(Cc2ccc(C#N)cc2)c2c(F)cccc12)C(=O)NCCO [Example 10, 1-(4-cyanobenzyl)-7-fluoro-N-[(1S)-1-{[(2-hydroxyethyl)amino]carbonyl}-2,2-dimethylpropyl]-1H-indazole-3-carboxamide] | 37.5 nM | 1.91 nM | – | –
CC(C)(C)[C@H](NC(=O)c1nn(Cc2ccc(F)cc2)c2ccccc12)C(=O)NCc1nnc(C(N)=O)o1 [Example 11, N-{(1S)-1-[({[5-(aminocarbonyl)-1,3,4-oxadiazol-2-yl]methyl}amino)carbonyl]-2,2-dimethylpropyl}-1-(4-fluorobenzyl)-1H-indazole-3-carboxamide] | – | – | 0.55 nM | 0.29 nM
Cc1nnc(CNC(=O)[C@@H](NC(=O)c2nn(Cc3ccc(F)cc3)c3c(F)c(F)ccc23)C(C)(C)C)o1 [Example 329] | 8 nM | 2.93 nM | – | –
CC(C)(C)[C@H](NC(=O)c1nn(Cc2ccc(C#N)cc2)c2c(F)cccc12)C(=O)NCCNS(=O)(=O)C1CC1 [Example 115] | – | – | 8.72 nM | 1.09 nM
Cc1noc(CNC(=O)C(NC(=O)c2nn(Cc3ccc(C#N)cc3)c3ccccc23)C(C)(C)C)n1 (stereo not drawn) [Example 140] | 645 nM | 39.3 nM | – | –
CC(C)(C)[C@H](NC(=O)c1nn(Cc2ccc(C#N)cc2F)c2c(F)c(F)ccc12)C(=O)NCc1nnc(C(N)=O)o1 [Example 365] | – | – | 34.8 nM | 11.9 nM
CC(C)(C)[C@H](NC(=O)c1nn(Cc2ccccc2)c2ccc(Br)cc12)C(N)=O [Example 7, N-[(1S)-1-(aminocarbonyl)-2,2-dimethylpropyl]-1-benzyl-5-bromo-1H-indazole-3-carboxamide] | 12.9 nM | 2.04 nM | – | –
CC(C)(C)C(NC(=O)c1nn(Cc2ccc(C#N)cc2)c2ccccc12)C(=O)NCc1nnc(C(N)=O)o1 (stereo not drawn) [Example 130] | – | – | 72.7 nM | 14.7 nM
CC(C)(C)C(NC(=O)c1nn(Cc2ccc(C#N)cc2F)c2ccccc12)C(N)=O (stereo not drawn) [Example 86] | 34.2 nM | 2.75 nM | – | –
CC(C)(C)C(NC(=O)c1nn(Cc2ccccc2C#N)c2ccccc12)C(N)=O (stereo not drawn) [Example 30] | 78.9 nM | 9.22 nM | – | –
CC(C)(C)[C@H](NC(=O)c1nn(Cc2ccc(F)cc2)c2ccccc12)C(=O)NCC1CCOCC1 [Example 211] | 18.3 nM | 3.08 nM | – | –
CC(C)(C)C(NC(=O)c1nn(Cc2ccc(F)cc2)c2ccccc12)c1nnc(CC(N)=O)o1 (stereo not drawn) [Example 120] | – | – | 40 nM | 3.05 nM
CC(C)(C)[C@H](NC(=O)c1nn(Cc2ccc(F)cc2)c2c(F)cc(Cl)cc12)C(=O)NC[C@H](O)CO [Example 496] | 30.2 nM | 16.5 nM | – | –
CC(C)(C)[C@H](NC(=O)c1nn(Cc2ccc(F)cc2)c2c(F)c(F)ccc12)C(=O)NCC(N)=O [Example 321] | 16.6 nM | 1.58 nM | – | –
CC(C)(C)[C@H](NC(=O)c1nn(Cc2ccc(F)cc2)c2ccccc12)C(=O)NCc1cnn(-c2ccccc2)n1 [Example 427] | – | – | 50.5 nM | 15 nM
CC(C)(C)[C@H](NC(=O)c1nn(Cc2ccc(F)cc2)c2ccccc12)C(=O)N1CC[C@H]1C(N)=O [Example 344] | 60.2 nM | 10.1 nM | – | –
CC(C)(C)[C@H](NC(=O)c1nn(Cc2ccc(C#N)cc2)c2c(F)cccc12)C(=O)NCc1nnc(C(N)=O)o1 [Example 116] | – | – | 49.6 nM | 13.5 nM
CC(C)(C)[C@H](NC(=O)c1nn(Cc2ccc(F)cc2)c2ccccc12)C(=O)NCC1CNC(=O)O1 (stereo partly drawn) [Example 315] | 8.67 nM | 2.91 nM | – | –
